Each structure is given as a SMILES string.

The nature of test [1]: Antagonist activity against rat 1A/2C subtype of N-methyl-D-aspartate (NMDA) receptor was determined by electrical assay in xenopus oocytes. Format: functional, cell-based. The following applies: Oocyte.
Test [2] deals with Glutamate NMDA receptor; Grin1/Grin2b (Rattus norvegicus, UniProt P35439+Q00960). The experiment in a line: Antagonist activity against rat 1A/2B subtype of N-methyl-D-aspartate (NMDA) receptor in xenopus oocytes. Format: functional, cell-based, Oocyte.
Test [3] is described as follows: Antagonist activity against rat 1A/2A subtype of N-methyl-D-aspartate (NMDA) receptor was determined by electrical assay in xenopus oocytes. The format is functional, cell-based. The following applies: Oocyte.

Glutamate NMDA receptor; Grin1/Grin2b, sequence (Q00960 whole entry, other chains not shown): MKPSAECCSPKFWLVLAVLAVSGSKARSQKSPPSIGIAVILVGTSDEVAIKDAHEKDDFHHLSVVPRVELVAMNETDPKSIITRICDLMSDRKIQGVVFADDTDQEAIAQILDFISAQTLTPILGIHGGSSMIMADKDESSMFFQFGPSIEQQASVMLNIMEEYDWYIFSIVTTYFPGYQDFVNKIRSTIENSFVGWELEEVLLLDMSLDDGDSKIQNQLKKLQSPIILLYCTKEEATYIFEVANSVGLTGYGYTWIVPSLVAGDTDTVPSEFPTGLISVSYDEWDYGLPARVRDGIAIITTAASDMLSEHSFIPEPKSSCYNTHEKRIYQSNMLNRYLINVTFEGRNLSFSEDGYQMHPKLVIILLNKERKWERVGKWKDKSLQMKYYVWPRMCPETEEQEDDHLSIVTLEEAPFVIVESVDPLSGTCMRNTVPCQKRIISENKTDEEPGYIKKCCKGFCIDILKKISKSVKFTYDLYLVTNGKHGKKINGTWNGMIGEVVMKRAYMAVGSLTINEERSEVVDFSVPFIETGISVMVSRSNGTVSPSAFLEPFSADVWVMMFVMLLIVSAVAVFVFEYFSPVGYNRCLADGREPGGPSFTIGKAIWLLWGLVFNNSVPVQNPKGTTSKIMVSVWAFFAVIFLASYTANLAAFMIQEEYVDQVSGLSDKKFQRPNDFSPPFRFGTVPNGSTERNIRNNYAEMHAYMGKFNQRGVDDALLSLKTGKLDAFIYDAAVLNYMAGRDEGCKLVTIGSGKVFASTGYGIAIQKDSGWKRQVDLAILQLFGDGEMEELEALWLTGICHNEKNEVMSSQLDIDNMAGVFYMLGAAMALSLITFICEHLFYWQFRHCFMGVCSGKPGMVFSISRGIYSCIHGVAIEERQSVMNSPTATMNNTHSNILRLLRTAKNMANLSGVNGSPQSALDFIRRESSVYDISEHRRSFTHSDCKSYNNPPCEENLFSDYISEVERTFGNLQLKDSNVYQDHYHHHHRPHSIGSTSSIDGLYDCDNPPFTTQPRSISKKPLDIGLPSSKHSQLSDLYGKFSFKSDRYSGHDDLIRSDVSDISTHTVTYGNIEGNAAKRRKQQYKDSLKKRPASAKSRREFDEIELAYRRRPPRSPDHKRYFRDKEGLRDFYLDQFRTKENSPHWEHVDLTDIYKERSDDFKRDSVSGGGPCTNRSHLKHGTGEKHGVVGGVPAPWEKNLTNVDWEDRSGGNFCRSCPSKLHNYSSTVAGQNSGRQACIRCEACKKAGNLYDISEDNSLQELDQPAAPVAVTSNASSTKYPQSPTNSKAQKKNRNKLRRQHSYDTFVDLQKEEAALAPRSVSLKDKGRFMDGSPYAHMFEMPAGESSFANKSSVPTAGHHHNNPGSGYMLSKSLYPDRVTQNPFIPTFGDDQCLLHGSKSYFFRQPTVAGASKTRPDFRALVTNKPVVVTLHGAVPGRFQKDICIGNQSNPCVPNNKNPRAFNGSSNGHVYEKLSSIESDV

As to `Oc1ccc(CCCCN2CCc3c([nH]c4ccccc34)C2)cc1`, the half-maximal inhibitory concentration (IC50) (commonly the midpoint of a concentration-inhibition curve) in test [1] was found to be 150 µM; in test [2], 0.56 µM; in test [3] it was 58 µM.
Regarding `c1ccc(CCCCN2CCc3c([nH]c4ccccc34)C2)cc1`, the figures for the IC50 in test [1], in test [2] and in test [3] were 65 µM, 3.3 µM and 68 µM, respectively.
For `Oc1ccc(CCN2CCc3c([nH]c4ccccc34)C2)cc1`, the 50% inhibitory concentration (IC50) in test [1] was determined as 140 µM; in test [2], 3.8 µM; in test [3], 74 µM.
For `COc1ccc2[nH]c3c(c2c1)CCN(CCCCc1ccccc1)C3` the same measures were 132 µM, 14 µM and 110 µM.
Molecule `Oc1ccc(CCCNCCCCc2ccccc2)cc1` gave an IC50 in test [2] of 0.02 µM.
`Oc1ccc2[nH]c3c(c2c1)CCN(CCCCc1ccccc1)C3`: the IC50 in test [1] came to 180 µM; in test [2], 0.14 µM; in test [3], 97 µM.
Taken in the same sequence, the figures for `Oc1ccc2c3c([nH]c2c1)CN(CCCCc1ccccc1)CC3` were 67 µM, 0.05 µM and 57 µM.
For `Oc1ccc(CCCN2CCc3c([nH]c4ccccc34)C2)cc1` the same measures were 170 µM, 0.087 µM and 42 µM.

The values are drawn from ChEMBL document CHEMBL1131743, “Structure-activity relationship for a series of 2-substituted 1,2,3,4-tetrahydro-9H-pyrido[3,4-b]indoles: potent subtype-selective inhibitors of N-methyl-D-aspartate (NMDA) receptors” (Bioorg Med Chem Lett, 1999).
